# In patent publication US11878970B2, “Allosteric chromenone inhibitors of phosphoinositide 3-kinase (PI3K) for the treatment of disease” (Petra Pharma Corporation, priority 2021, dated 2024):
# Key:
# [1] = target: T1, PI3K-α (PIK3CA) H1047R mutant, p110α/p85α complex (Homo sapiens, UniProt P42336, H1047R); assay: PI3K-alpha kinase (PIK3CA) biochemical activity, ADP-Glo, H1047R mutant; conditions: Soy PI lipid substrate
# T1 construct: Recombinant, catalytically active human full length PIK3KA Wild-type and H1047R mutant; 6×His (N); purchased EMD Millipore Sigma 14-792M
# Summary of the method: (§1)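 ADP formation measured by ADP-Glo luminescence after reaction at 27 °C to about 10% ATP turnover, using 20 uM ATP, 50 uM PIP2diC8 or soy PI lipid, HEPES pH 7.4 with MgCl2. Enzyme (1-5 nM WT or H1047R p110α/p85α) and compound preincubated 1 h first; 10-point 1:3 curves fitted four-parameter for IC50.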
# [2] = target: PI3K-α (PIK3CA) in MDA-MB-453 cells (Homo sapiens, UniProt P42336); assay: PI3K-alpha kinase (PIK3CA) in vitro cell based assay, MDA-MB-453 cells, SureFire Ultra AlphaLisa; conditions: read-out: PI3K-α (PIK3CA) in vitro cell based assay IC50
# Summary of the method: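 Cells treated 3 h in serum-free MEM with 1 μg/mL insulin, 10-point 1:3 series in 0.3% DMSO, then lysed for SureFire Ultra AlphaLisa read-out. Inhibition normalized to DMSO (max) and 1 μM GDC-0032 (min); duplicate averages fitted by 4-parameter logistic for relative IC50.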
# [3] = target: T2, PI3K-α (PIK3CA) wild-type (WT), p110α/p85α complex (Homo sapiens, UniProt P42336); assay: PI3K-alpha kinase (PIK3CA) biochemical activity, ADP-Glo, wild-type; conditions: Soy PI lipid substrate
# T2 construct: Recombinant, catalytically active human full length PIK3KA Wild-type and H1047R mutant; 6×His (N); purchased EMD Millipore Sigma 14-602M
# Summary of the method: as §1
# Sequence of PI3K-α (PIK3CA) in MDA-MB-453 cells (P27986 2-724): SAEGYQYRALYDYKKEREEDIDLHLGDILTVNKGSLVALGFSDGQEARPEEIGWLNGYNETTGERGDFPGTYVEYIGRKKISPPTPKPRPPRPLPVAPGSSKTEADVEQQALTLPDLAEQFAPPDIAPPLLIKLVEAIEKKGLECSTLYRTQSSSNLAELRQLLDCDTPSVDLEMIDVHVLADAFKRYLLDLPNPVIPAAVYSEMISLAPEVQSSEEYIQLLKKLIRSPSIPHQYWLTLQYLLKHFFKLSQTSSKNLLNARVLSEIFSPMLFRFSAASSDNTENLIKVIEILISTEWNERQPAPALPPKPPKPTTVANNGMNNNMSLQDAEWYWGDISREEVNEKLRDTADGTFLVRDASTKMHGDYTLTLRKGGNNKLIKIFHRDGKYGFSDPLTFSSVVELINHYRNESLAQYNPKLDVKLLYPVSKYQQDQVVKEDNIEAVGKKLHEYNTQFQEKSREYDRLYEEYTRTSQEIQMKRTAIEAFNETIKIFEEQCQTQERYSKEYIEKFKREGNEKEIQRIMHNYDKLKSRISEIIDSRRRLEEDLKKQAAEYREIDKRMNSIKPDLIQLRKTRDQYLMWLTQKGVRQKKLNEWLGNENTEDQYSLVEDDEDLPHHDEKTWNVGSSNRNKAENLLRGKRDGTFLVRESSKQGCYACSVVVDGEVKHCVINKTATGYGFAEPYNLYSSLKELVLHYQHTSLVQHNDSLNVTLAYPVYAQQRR
# Sequence of PI3K-α (PIK3CA) in MDA-MB-453 cells (P42336 whole entry): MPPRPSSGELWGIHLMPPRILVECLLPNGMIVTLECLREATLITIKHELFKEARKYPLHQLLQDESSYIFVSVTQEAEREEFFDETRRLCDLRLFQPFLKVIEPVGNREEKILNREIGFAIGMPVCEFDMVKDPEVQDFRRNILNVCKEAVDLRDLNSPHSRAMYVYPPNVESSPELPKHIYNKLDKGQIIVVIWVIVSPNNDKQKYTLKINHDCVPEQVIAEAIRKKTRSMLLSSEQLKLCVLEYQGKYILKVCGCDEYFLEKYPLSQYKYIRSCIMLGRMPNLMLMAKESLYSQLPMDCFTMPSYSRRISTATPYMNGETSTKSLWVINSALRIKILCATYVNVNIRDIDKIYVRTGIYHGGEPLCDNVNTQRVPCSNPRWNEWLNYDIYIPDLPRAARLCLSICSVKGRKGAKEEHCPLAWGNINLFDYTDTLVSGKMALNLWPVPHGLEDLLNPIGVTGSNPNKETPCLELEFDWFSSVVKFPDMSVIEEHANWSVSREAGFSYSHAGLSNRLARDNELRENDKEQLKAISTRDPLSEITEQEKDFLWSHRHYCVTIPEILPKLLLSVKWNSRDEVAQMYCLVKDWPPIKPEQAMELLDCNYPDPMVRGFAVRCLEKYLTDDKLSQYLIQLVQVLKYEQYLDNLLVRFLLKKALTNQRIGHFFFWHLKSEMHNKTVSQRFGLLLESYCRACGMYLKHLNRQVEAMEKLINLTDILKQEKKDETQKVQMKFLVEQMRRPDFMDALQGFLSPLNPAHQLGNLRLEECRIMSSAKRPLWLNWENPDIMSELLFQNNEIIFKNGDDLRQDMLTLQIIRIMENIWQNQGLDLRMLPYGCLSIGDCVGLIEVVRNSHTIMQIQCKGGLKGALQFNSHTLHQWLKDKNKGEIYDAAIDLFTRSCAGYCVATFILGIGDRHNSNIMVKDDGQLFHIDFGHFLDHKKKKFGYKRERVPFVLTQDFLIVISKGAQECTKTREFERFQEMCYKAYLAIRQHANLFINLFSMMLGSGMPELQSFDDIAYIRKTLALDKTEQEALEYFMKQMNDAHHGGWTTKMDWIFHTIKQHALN
# T1 sequence (P42336 whole entry H1047R): as the sequence (P42336 whole entry) above, with H1047R counted along it
# T1 sequence (P27986 whole entry partner): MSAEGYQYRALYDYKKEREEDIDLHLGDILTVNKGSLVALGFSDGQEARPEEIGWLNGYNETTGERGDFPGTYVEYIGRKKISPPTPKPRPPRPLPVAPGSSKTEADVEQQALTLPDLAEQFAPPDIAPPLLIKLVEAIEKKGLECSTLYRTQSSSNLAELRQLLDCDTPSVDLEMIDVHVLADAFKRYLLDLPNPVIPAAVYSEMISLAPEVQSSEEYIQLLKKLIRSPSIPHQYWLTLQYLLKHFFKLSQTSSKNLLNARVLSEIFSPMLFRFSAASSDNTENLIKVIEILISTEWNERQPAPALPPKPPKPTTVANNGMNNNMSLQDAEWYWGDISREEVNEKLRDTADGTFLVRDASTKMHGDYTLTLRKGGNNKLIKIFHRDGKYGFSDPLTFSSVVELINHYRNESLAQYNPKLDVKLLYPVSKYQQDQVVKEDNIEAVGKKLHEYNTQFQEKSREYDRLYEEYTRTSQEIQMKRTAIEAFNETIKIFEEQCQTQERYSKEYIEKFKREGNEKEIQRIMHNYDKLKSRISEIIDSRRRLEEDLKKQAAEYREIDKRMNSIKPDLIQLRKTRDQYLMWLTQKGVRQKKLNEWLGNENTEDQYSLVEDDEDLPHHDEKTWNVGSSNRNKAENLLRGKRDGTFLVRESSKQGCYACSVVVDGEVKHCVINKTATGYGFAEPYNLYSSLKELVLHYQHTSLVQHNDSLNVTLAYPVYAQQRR
Structure (SMILES),IC50 [1],IC50 [2],IC50 [3]
"Cc1cc([C@@H](C)Nc2ccc(Cl)nc2C(=O)O)c2oc(-c3ccc4nc(C)sc4n3)c(C)c(=O)c2c1 [Example 242, 6-Chloro-3-[[(1R)-1-[3,6-dimethyl-2-(2-methylthiazolo[5,4-b]pyridin-5-yl)-4-oxo-chromen-8-yl]ethyl]amino]pyridine-2-carboxylic acid]",< 500 nM,< 50 nM,500 to 1000 nM
"CC(Nc1ccc(Cl)nc1C(=O)O)c1cc(C(F)(F)F)cc2c(=O)cc(-c3ccc4c(cnn4C)c3)oc12 (single isomer, unassigned) [Example 168, 6-Chloro-3-[1-[2-(1-methylindazol-5-yl)-4-oxo-6-(trifluoromethyl)chromen-8-yl]ethylamino]pyridine-2-carboxylic acid]",< 500 nM,50 to 100 nM,< 500 nM
"Cc1cc([C@@H](C)Nc2cccnc2C(=O)O)c2oc(-c3nn(C)c4ccccc34)c(C)c(=O)c2c1 [Example 205, 3-[[(1R)-1-[3,6-Dimethyl-2-(1-methylindazol-3-yl)-4-oxo-chromen-8-yl]ethyl]amino]pyridine-2-carboxylic acid]",1000 to 5000 nM,50 to 100 nM,> 10000 nM
"Cc1cc([C@@H](C)Nc2ccc(F)cc2C(=O)O)c2oc(-c3ccc4nc(C)sc4n3)c(C)c(=O)c2c1 [Example 254, 2-[[(1R)-1-[3,6-Dimethyl-2-(2-methylthiazolo[5,4-b]pyridin-5-yl)-4-oxo-chromen-8-yl]ethyl]amino]-5-fluoro-benzoic acid]",< 500 nM,< 50 nM,500 to 1000 nM
"Cc1cc(C(C)Nc2ccccc2C(=O)O)c2oc(-c3ccc4[nH]c(C)nc4c3)cc(=O)c2c1 (single isomer, unassigned) [Example 65, 2-[1-[6-Methyl-2-(2-methyl-1H-benzimidazol-5-yl)-4-oxo-chromen-8-yl]ethylamino]benzoic acid]",< 500 nM,100 to 500 nM,1000 to 5000 nM
"Cc1cc(C(C)Nc2ccccc2C(=O)O)c2oc(-c3ccc4nc(C(F)(F)F)cn4c3)cc(=O)c2c1 (single isomer, unassigned) [Example 70, 2-[1-[6-Methyl-4-oxo-2-[2-(trifluoromethyl)imidazo[1,2-a]pyridin-6-yl]chromen-8-yl]ethylamino]benzoic acid]",< 500 nM,50 to 100 nM,1000 to 5000 nM
"Cc1cc(C(C)Nc2ccccc2C(=O)O)c2oc(-c3cnc4cc[nH]c4c3)cc(=O)c2c1 (single isomer, unassigned) [Example 71, 2-[1-[6-Methyl-4-oxo-2-(1H-pyrrolo[3,2-b]pyridin-6-yl)chromen-8-yl]ethylamino]benzoic acid]",< 500 nM,100 to 500 nM,1000 to 5000 nM
"Cc1cc(C(C)Nc2ccc(Cl)nc2C(=O)O)c2oc(-c3ccc4c(cnn4C)c3)cc(=O)c2c1 (single isomer, unassigned) [Example 217, 6-Chloro-3-[1-[6-methyl-2-(1-methylindazol-5-yl)-4-oxo-chromen-8-yl]ethylamino]pyridine-2-carboxylic acid]",1000 to 5000 nM,> 500 nM,1000 to 5000 nM
"Cc1cc([C@@H](C)Nc2cccnc2C(=O)O)c2oc(-c3ccc4nn(C)cc4c3)c(C)c(=O)c2c1 [Example 240, 3-[[(1R)-1-[3,6-Dimethyl-2-(2-methylindazol-5-yl)-4-oxo-chromen-8-yl]ethyl]amino]pyridine-2-carboxylic acid]",500 to 1000 nM,50 to 100 nM,1000 to 5000 nM
